Assay results as given in patent US9428462B2, “4-[-2-[[5-methyl-1-(2-naphthalenyl)-1H-pyrazol-3-yl]oxy]ethyl]morpholine hydrochloride amorphous solid forms” (priority 2010, dated 2016).

Assays:
Format in all cases: physicochemical
[1] = Drying experiments of the amorphous phase for four hours at different temperatures, solid analyzed by PXRD; details: for Solid phase after drying: PXRD
Protocol: (§1) Approximately 20 mg of the non manipulated samples were prepared in standard sample holders using two foils of polyacetate.
(§2) Powder diffraction patterns were acquired on a D8 Advance Series 2Theta/Theta powder diffraction system using CuKα-radiation in transmission geometry (Wavelength: 1.54060 Å). The system was equipped with a VANTEC-1 single photon counting PSD, a Germanium monochromator, a ninety positions auto changer sample stage, fixed divergence slits and radial soller. Programs used: Data collection with DIFFRAC plus XRD Commander V.2.5.1 and evaluation with EVA V.12.0.
In order to test the stability of the amorphous phase and to investigate its stability, different portions of the amorphous phase were dried for four hours at different temperatures (table 5). Once the samples were dried the solid was analyzed by PXRD.

[2] = Drying experiments of the amorphous phase under vacuum (5-7 mbar) at different temperatures and times, solid analyzed by PXRD; details: for Solid phase after drying under vacuum: PXRD
Protocol: as §1, §2
In a second experiment, different portions of the amorphous phase were dried under vacuum conditions (5-7 mbar) at room temperature, 40° C. and 60° C. for different times (4, 8, 16 and 24 hours; table 6). Once the samples were dried, the solid was analyzed by PXRD. […] In the experiments performed at 40° C. the amorphous phase began to crystallize after 16 hours. In the experiments performed at 60° C. the amorphous phase began to crystallize after 8 hours and phase I could be clearly identified after 16 hours.

[3] = 1H NMR check of the stability of the salt in amorphous form samples; details: several samples of the amorphous form, CDCl3
Protocol: In addition, several samples of the amorphous form obtained were analyzed by ^1H NMR in order to check the stability of the salt (FIG. 2 is a ^1H NMR spectrum of the amorphous phase).
Proton nuclear magnetic resonance analyses were recorded in deuterated chloroform (CDCl3) in a Bruker Avance 400 Ultrashield NMR spectrometer, equipped with a z-gradient 5 mm BBO (Broadband Observe) probe with ATM and an automatic BACS-120 autosampler. Spectra were acquired solving 2-10 mg of sample in 0.6 mL of deuterated solvent.

Solid phase after drying ([1]; Sample 1: dried four hours at rt): amorphous | Solid phase after drying ([1]; Sample 2: dried four hours at 40 °C): amorphous | Solid phase after drying ([1]; Sample 3: dried four hours at 50 °C): amorphous | Solid phase after drying ([1]; Sample 4: dried four hours at 60 °C): amorphous | Solid phase after drying ([1]; Sample 5: dried four hours at 80 °C): amorphous + crystalline | Solid phase after drying ([1]; Sample 6: dried four hours at 90 °C): amorphous + crystalline | Solid phase after drying ([1]; Sample 7: dried four hours at 100 °C): phase I + crystalline | Solid phase after drying ([1]; Sample 8: dried four hours at 110 °C): phase I | Solid phase after drying ([1]; Sample 9: dried four hours at 120 °C): phase I | Stability of the amorphous phase on drying ([1]; four hours at temperature higher than 100° C.): transformed clearly to phase I | Stability of the amorphous phase on drying ([1]; temperatures up to 60° C. for four hours): amorphous phase was recovered | Solid phase after drying under vacuum ([2]; Sample 10: vacuum 5-7 mbar, 23° C., 4 hours): amorphous | Solid phase after drying under vacuum ([2]; Sample 11: vacuum 5-7 mbar, 23° C., 8 hours): amorphous | Solid phase after drying under vacuum ([2]; Sample 12: vacuum 5-7 mbar, 23° C., 16 hours): amorphous | Solid phase after drying under vacuum ([2]; Sample 13: vacuum 5-7 mbar, 23° C., 24 hours): amorphous | Solid phase after drying under vacuum ([2]; Sample 14: vacuum 5-7 mbar, 40° C., 4 hours): amorphous | Solid phase after drying under vacuum ([2]; Sample 15: vacuum 5-7 mbar, 40° C., 8 hours): amorphous | Solid phase after drying under vacuum ([2]; Sample 16: vacuum 5-7 mbar, 40° C., 16 hours): amorphous + phase I | Solid phase after drying under vacuum ([2]; Sample 17: vacuum 5-7 mbar, 40° C., 24 hours): amorphous + phase I | Solid phase after drying under vacuum ([2]; Sample 18: vacuum 5-7 mbar, 60° C., 4 hours): amorphous | Solid phase after drying under vacuum ([2]; Sample 19: vacuum 5-7 mbar, 60° C., 8 hours): amorphous + phase I | Solid phase after drying under vacuum ([2]; Sample 20: vacuum 5-7 mbar, 60° C., 16 hours): phase I | Solid phase after drying under vacuum ([2]; Sample 21: vacuum 5-7 mbar, 60° C., 24 hours): phase I | Time after which the amorphous phase began to crystallize ([2]; vacuum 5-7 mbar, 40° C.): 16 h | Time after which phase I could be clearly identified ([2]; vacuum 5-7 mbar, 60° C.): 16 h | Time after which the amorphous phase began to crystallize ([2]; vacuum 5-7 mbar, 60° C.): 8 h | Stability of the amorphous phase on drying under vacuum ([2]; vacuum 5-7 mbar, room temperature, up to 24 hours): did not change after drying
Compound: Cc1cc(OCCN2CCOCC2)nn1-c1ccc2ccccc2c1.Cl [amorphous phase, 4-[2-[[5-methyl-1-(2-naphthalenyl)-1H-pyrazol-3-yl]oxy]ethyl]morpholine hydrochloride]
Stability of the amorphous phase on drying ([1]; temperatures over 60° C., four hours): transformed slightly to a crystalline phase, not clearly identified | Stability of the salt by 1H NMR [3]: no signs of the lost of HCl or decomposition of the samples could be observed
